Assay results as given in US7211587B2, “Quinoline derivatives and quinazoline derivatives having azolyl group” (Kirin Beer Kabushiki Kaisha, priority 2001, dated 2007).

Molecular target: T1, human KDR (Homo sapiens, UniProt P35968)
T1 construct: expressed in transfected cells; host or cells: NIH 3T3 cells (mouse fibroblasts) stably expressing human KDR
Test: Inhibitory activity against KDR phosphorylation by ELISA (VEGF-stimulated NIH 3T3 cells expressing human KDR)
Assay type: cell-based
Conditions: VEGF 100 ng/ml, compound 1 hr, read-out: IC50 (inhibition of KDR phosphorylation)
Method: The harvested cells were inoculated into wells of a collagen-type one-coat 96-well flat-bottom plate, each containing the same medium, in an amount of 1.5×10^4 per well, followed by cultivation at 37° C. overnight. The medium was then replaced by a DMEM medium containing 0.1% fetal calf serum. A solution of a test compound in dimethyl sulfoxide was added to each well, and the cultivation was continued at 37° C. for additional one hr. A human recombinant vascular endothelial growth factor (hereinafter abbreviated to “VEGF”) was added to a final concentration of 100 ng/ml, and the stimulation of cells was carried out at 37° C. for 2 min. The medium was removed, the cells were washed with phosphate buffered saline (pH 7.4), and 50 μl of a solubilization buffer (20 mM HEPES (pH 7.4), 150 mM NaCl, 0.2% Triton X-100, 10% glycerol, 5 mM sodium orthovanadylate, 5 mM disodium ethylenediaminetetraacetate, and 2 mM Na4P2O7) was then added thereto. The mixture was shaken at 4° C. for 2 hr to prepare a cell extract.
Separately, phosphate buffered saline (50 μl, pH 7.4) containing 5 μg/ml of an anti-phospho-tyrosine antibody (PY20; purchased from Transduction Laboratories) was added to a microplate for ELISA (Maxisorp; purchased from NUNC), followed by standing at 4° C. overnight to form a solid phase on the wells. After washing of the plate, 300 μl of a blocking solution was added, followed by standing at room temperature for 2 hr to perform blocking. After washing, the whole quantity of the cell extract was transferred to the wells, and the plate was then allowed to stand at 4° C. overnight. After washing, an anti-KDR antibody (purchased from Santa Cruz) was allowed to react at room temperature for one hr, and, after washing, a peroxidase-labeled anti-rabbit Ig antibody (purchased from Amersham) was allowed to react at room temperature for one hr. After washing, a chromophoric substrate for peroxidase (purchased from Sumitomo Bakelite Co., Ltd.) was added thereto to initiate a reaction. After a suitable level of color development, a reaction termination solution was added to stop the reaction, and the absorbance at 450 nm was measured with a microplate reader. The KDR phosphorylation activity for each well was determined by presuming the absorbance with the addition of VEGF and without the addition of the medicament to be 100% KDR phosphorylation activity and the absorbance without the addition of the medicament and VEGF to be 0% KDR phosphorylation activity.

T1 sequence (P35968 20-1356): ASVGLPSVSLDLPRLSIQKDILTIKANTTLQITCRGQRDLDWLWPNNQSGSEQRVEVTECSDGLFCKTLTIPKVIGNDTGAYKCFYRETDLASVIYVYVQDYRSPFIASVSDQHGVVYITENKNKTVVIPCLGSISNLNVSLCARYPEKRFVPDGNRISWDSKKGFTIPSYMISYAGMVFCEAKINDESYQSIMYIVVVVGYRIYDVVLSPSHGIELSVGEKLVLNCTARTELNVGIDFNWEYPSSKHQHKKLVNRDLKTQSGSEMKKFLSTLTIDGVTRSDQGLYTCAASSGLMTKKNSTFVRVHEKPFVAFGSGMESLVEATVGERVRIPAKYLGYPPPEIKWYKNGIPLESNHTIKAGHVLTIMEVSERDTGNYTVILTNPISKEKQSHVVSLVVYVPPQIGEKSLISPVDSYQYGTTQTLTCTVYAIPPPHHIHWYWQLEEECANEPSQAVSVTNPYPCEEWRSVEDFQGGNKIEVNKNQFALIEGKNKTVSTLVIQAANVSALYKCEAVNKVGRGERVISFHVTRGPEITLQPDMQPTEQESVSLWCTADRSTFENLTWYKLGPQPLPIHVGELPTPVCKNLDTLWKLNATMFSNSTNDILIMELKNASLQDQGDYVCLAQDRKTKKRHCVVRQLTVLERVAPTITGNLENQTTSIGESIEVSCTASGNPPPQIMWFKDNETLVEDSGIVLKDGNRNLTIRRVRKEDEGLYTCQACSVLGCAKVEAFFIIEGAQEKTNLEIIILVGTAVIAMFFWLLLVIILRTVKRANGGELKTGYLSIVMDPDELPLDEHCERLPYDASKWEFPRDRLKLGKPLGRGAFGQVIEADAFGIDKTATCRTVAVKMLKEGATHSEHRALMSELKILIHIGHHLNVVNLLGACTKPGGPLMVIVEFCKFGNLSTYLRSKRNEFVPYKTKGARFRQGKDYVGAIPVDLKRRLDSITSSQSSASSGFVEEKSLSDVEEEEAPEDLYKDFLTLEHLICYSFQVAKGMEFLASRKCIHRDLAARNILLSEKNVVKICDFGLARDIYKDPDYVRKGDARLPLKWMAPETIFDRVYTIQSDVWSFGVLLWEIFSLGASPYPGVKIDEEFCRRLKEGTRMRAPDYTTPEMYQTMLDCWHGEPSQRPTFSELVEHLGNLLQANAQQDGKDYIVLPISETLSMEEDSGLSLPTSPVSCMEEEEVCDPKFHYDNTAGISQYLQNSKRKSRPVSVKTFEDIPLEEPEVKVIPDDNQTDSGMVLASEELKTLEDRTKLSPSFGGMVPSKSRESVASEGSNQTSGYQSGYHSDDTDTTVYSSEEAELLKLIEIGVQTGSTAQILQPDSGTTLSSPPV

IC50 | SMILES
2.3 nM | COc1cc2nccc(Oc3ccc(NC(=O)Nc4ccon4)cc3Cl)c2cc1OC [Ex. 1, N-{3-Chloro-4-[(6,7-dimethoxy-4-quinolyl)oxy]phenyl}-N′-(3-isoxazolyl)urea]
2 nM | COc1cc2nccc(Oc3ccc(NC(=O)Nc4cc(C)no4)cc3Cl)c2cc1OC [Ex. 2, N-{3-Chloro-4-[(6,7-dimethoxy-4-quinolyl)oxy]phenyl}-N′-(3-methyl-5-isoxazolyl)urea]
3.6 nM | COc1cc2ncnc(Oc3ccc(NC(=O)Nc4cc(C)on4)cc3)c2cc1OC [Ex. 10, N-{4-[(6,7-Dimethoxy-4-quinazolinyl)oxy]-phenyl}-N′-(5-methyl-3-isoxazolyl)urea]
9.3 nM | COc1cc2ncnc(Oc3ccc(NC(=O)Nc4cc(C)no4)cc3)c2cc1OC [Ex. 11, N-{4-[(6,7-Dimethoxy-4-quinazolinyl)oxy]-phenyl}-N′-(3-methyl-5-isoxazolyl)urea]
< 1 nM | COc1cc2ncnc(Oc3ccc(NC(=O)Nc4cc(C)on4)c(Cl)c3)c2cc1OC [Ex. 12, N-{2-Chloro-4-[(6,7-dimethoxy-4-quinazolinyl)oxy]phenyl}-N′-(5-methyl-3-isoxazolyl)urea]
2.2 nM | COc1cc2ncnc(Oc3ccc(NC(=O)Nc4cc(C)no4)c(Cl)c3)c2cc1OC [Ex. 13, N-{2-Chloro-4-[(6,7-dimethoxy-4-quinazolinyl)oxy]phenyl}-N′-(3-methyl-5-isoxazolyl)urea]
4.4 nM | COc1cc2ncnc(Oc3ccc(NC(=O)Nc4cc(C)on4)cc3Cl)c2cc1OC [Ex. 14, N-{3-Chloro-4-[(6,7-dimethoxy-4-quinazolinyl)oxy]phenyl}-N′-(5-methyl-3-isoxazolyl)urea]
13.4 nM | COc1cc2ncnc(Oc3ccc(NC(=O)Nc4cc(C)no4)cc3Cl)c2cc1OC [Ex. 15, N-{3-Chloro-4-[(6,7-dimethoxy-4-quinazolinyl)oxy]phenyl}-N′-(3-methyl-5-isoxazolyl)urea]
54.9 nM | COc1cc2ncnc(Oc3ccc(NC(=O)Nc4cc(C)ns4)cc3)c2cc1OC [Ex. 16, N-{4-[(6,7-Dimethoxy-4-quinazolinyl)oxy]-phenyl}-N′-(3-methyl-5-isothiazolyl)urea]
4.9 nM | COc1cc2ncnc(Oc3ccc(NC(=O)Nc4cc(C)ns4)c(Cl)c3)c2cc1OC [Ex. 17, N-{2-Chloro-4-[(6,7-dimethoxy-4-quinazolinyl)oxy]phenyl}-N′-(3-methyl-5-isothiazolyl)-urea]
69.7 nM | COc1cc2ncnc(Oc3ccc(NC(=O)Nc4cc(C)ns4)cc3Cl)c2cc1OC [Ex. 18, N-{3-Chloro-4-[(6,7-dimethoxy-4-quinazolinyl)oxy]phenyl}-N′-(3-methyl-5-isothiazolyl)-urea]
17.5 nM | COc1cc2nccc(Oc3ccc(NC(=O)Nc4ccn[nH]4)cc3Cl)c2cc1OC [Ex. 19, N-{3-Chloro-4-[(6,7-dimethoxy-4-quinolyl)oxy]phenyl}-N′-(1H-5-pyrazolyl)urea]
4.2 nM | COc1cc2nccc(Oc3ccc(NC(=O)Nc4ccn[nH]4)c(F)c3)c2cc1OC [Ex. 20, N-{4-[(6,7-Dimethoxy-4-quinolyl)oxy]-2-fluorophenyl}-N′-(1H-5-pyrazolyl)urea]
5 nM | COc1cc2nccc(Oc3ccc(NC(=O)Nc4nc(C)c(C)s4)c(C(F)(F)F)c3)c2cc1OC [Ex. 26, N-[4-[(6,7-Dimethoxy-4-quinolyl)oxy]-2-(trifluoromethyl)phenyl]-N′-(4,5-dimethyl-1,3-thiazol-2-yl)urea]
28.6 nM | COc1cc2nccc(Oc3ccc(NC(=O)Nc4nc(C(C)(C)C)cs4)c(F)c3)c2cc1OC [Ex. 30, N-[4-(Tert-butyl)-1,3-thiazol-2-yl]-N′-{4-[(6,7-dimethoxy-4-quinolyl)oxy]-2-fluorophenyl}urea]
33.9 nM | CCOC(=O)Cc1csc(NC(=O)Nc2ccc(Oc3ccnc4cc(OC)c(OC)cc34)cc2Cl)n1 [Ex. 31, Ethyl 2-{2-[({2-chloro-4-[(6,7-dimethoxy-4-quinolyl)oxy]anilino}carbonyl)amino]-1,3-thiazol-4-yl}acetate]
3.7 nM | COc1cc2nccc(Oc3ccc(NC(=O)Nc4ncc(Br)s4)c(Cl)c3)c2cc1OC [Ex. 32, N-(5-Bromo-1,3-thiazol-2-yl)-N′-{2-chloro-4-[(6,7-dimethoxy-4-quinolyl)oxy]phenyl}urea]

IC50 | SMILES
21.1 nM | COc1cc2nccc(Oc3ccc(NC(=O)Nc4nc(C(C)(C)C)cs4)c(Cl)c3)c2cc1OC [Ex. 33, N-[4-(Tert-butyl)-1,3-thiazol-2-yl]-N′-{2-chloro-4-[(6,7-dimethoxy-4-quinolyl)oxy]phenyl}urea]
2.8 nM | COc1cc2nccc(Oc3ccc(NC(=O)Nc4ncc(Cl)s4)c(Cl)c3)c2cc1OC [Ex. 34, N-{2-Chloro-4-[(6,7-dimethoxy-4-quinolyl)oxy]phenyl}-N′-(5-chloro-1,3-thiazol-2-yl)urea]
1.9 nM | COc1cc2nccc(Oc3ccc(NC(=O)Nc4ncc(Br)s4)c(F)c3)c2cc1OC [Ex. 35, N-(5-Bromo-1,3-thiazol-2-yl)-N′-{4-[(6,7-dimethoxy-4-quinolyl)oxy]-2-fluorophenyl}urea]
1.2 nM | COc1cc2nccc(Oc3ccc(NC(=O)Nc4nc(C)c(C(C)=O)s4)c(F)c3)c2cc1OC [Ex. 36, N-(5-Acetyl-4-methyl-1,3-thiazol-2-yl)-N′-{4-[(6,7-dimethoxy-4-quinolyl)oxy]-2-fluorophenyl}urea]
1.9 nM | COc1cc2nccc(Oc3ccc(NC(=O)Nc4ncc(Cl)s4)c(F)c3)c2cc1OC [Ex. 37, N-(5-Chloro-1,3-thiazol-2-yl)-N′-{4-[(6,7-dimethoxy-4-quinolyl)oxy]-2-fluorophenyl}urea]
4.7 nM | COc1cc2ncnc(Oc3ccc(NC(=O)Nc4nccs4)cc3)c2cc1OC [Ex. 42, N-{4-[(6,7-Dimethoxy-4-quinazolinyl)oxy]-phenyl}-N′-(1,3-thiazol-2-yl)urea]
< 1 nM | COc1cc2ncnc(Oc3ccc(NC(=O)Nc4ncc(C)s4)cc3)c2cc1OC [Ex. 43, N-{4-[(6,7-Dimethoxy-4-quinazolinyl)oxy]-phenyl}-N′-(5-methyl-1,3-thiazol-2-yl)urea]
1.1 nM | COc1cc2ncnc(Oc3ccc(NC(=O)Nc4nc(C)cs4)cc3)c2cc1OC [Ex. 44, N-{4-[(6,7-Dimethoxy-4-quinazolinyl)oxy]-phenyl}-N′-(4-methyl-1,3-thiazol-2-yl)urea]
< 1 nM | COc1cc2ncnc(Oc3ccc(NC(=O)Nc4nc(C)c(C)s4)cc3)c2cc1OC [Ex. 45, N-{4-[(6,7-Dimethoxy-4-quinazolinyl)oxy]-phenyl}-N′-(4,5-dimethyl-1,3-thiazol-2-yl)urea]
7.4 nM | COc1cc2ncnc(Oc3ccc(NC(=O)Nc4nccs4)cc3Cl)c2cc1OC [Ex. 46, N-{3-Chloro-4-[(6,7-dimethoxy-4-quinazolinyl)oxy]phenyl}-N′-(1,3-thiazol-2-yl)urea]
2.8 nM | COc1cc2ncnc(Oc3ccc(NC(=O)Nc4ncc(C)s4)cc3Cl)c2cc1OC [Ex. 47, N-{3-Chloro-4-[(6,7-dimethoxy-4-quinazolinyl)oxy]phenyl}-N′-(5-methyl-1,3-thiazol-2-yl)urea]
4.4 nM | COc1cc2ncnc(Oc3ccc(NC(=O)Nc4nc(C)cs4)cc3Cl)c2cc1OC [Ex. 48, N-{3-Chloro-4-[(6,7-dimethoxy-4-quinazolinyl)oxy]phenyl}-N′-(4-methyl-1,3-thiazol-2-yl)urea]
3.1 nM | COc1cc2ncnc(Oc3ccc(NC(=O)Nc4nc(C)c(C)s4)cc3Cl)c2cc1OC [Ex. 49, N-{3-Chloro-4-[(6,7-dimethoxy-4-quinazolinyl)oxy]phenyl}-N′-(4,5-dimethyl-1,3-thiazol-2-yl)urea]
1.3 nM | CCc1nnc(NC(=O)Nc2ccc(Oc3ccnc4cc(OC)c(OC)cc34)cc2)s1 [Ex. 59, N-{4-[(6,7-Dimethoxy-4-quinolyl)oxy]phenyl}-N′-(5-ethyl-1,3,4-thiadiazol-2-yl)urea]
< 1 nM | CCc1nnc(NC(=O)Nc2ccc(Oc3ccnc4cc(OC)c(OC)cc34)cc2C)s1 [Ex. 60, N-{4-[(6,7-Dimethoxy-4-quinolyl)oxy]-2-methylphenyl}-N′-(5-ethyl-1,3,4-thiadiazol-2-yl)urea]
1.5 nM | CCc1nnc(NC(=O)Nc2ccc(Oc3ccnc4cc(OC)c(OC)cc34)c(C)c2C)s1 [Ex. 62, N-{4-[(6,7-Dimethoxy-4-quinolyl)oxy]-2,3-dimethylphenyl}-N′-(5-ethyl-1,3,4-thiadiazol-2-yl)urea]
< 1 nM | CCc1nnc(NC(=O)Nc2ccc(Oc3ccnc4cc(OC)c(OC)cc34)cc2F)s1 [Ex. 63, N-{4-[(6,7-Dimethoxy-4-quinolyl)oxy]-2-fluorophenyl}-N′-(5-ethyl-1,3,4-thiadiazol-2-yl)urea]
